Patent publication US10202377B2, “3-(1H-benzo[D]imidazol-2-yl)-1H-pyrazolo[3,4-C]pyridine and therapeutic uses thereof” (Samumed, LLC, priority 2014, dated 2019)

Tests used:
[1] = test system: primary human fibroblasts derived from IPF patients (LL29 cells); test: Inhibition of fibrosis (αSMA staining) in TGF-β1-treated primary human fibroblasts from IPF patients; assay type: cell-based; conditions: Fibroblast, 96 h, TGF-β1 20 ng/mL, 4 days
Experimental: The above synthesized compounds were screened using primary human fibroblasts (derived from IPF patients) treated with TGF-β1 to determine their ability to inhibit the fibrotic process.
Compound Screening: Each compound was dissolved in DMSO as a 10 mM stock and used to prepare compound source plates. […] LL29 cells were plated at 1,500 cells/well in 80 μl/well F12 medium supplemented with 1% Fetal Bovine Serum. One hour after addition of the cells, TGF-β1 (Peprotech; 20 ng/mL) was added to the plates to induce fibrosis (ref. 1 and 2 above). Wells treated with TGF-β1 and containing DMSO were used as controls. Cells were incubated at 37° C. and 5% CO2 for 4 days. Following incubation for 4 days, SYTOX green nucleic acid stain (Life Technologies [Thermo Fisher Scientific]) was added to the wells at a final concentration of 1 uM and incubated at room temperature for 30 min. Cells were then fixed using 4% formaldehyde (Electron Microscopy Sciences), washed 3 times with PBS followed by blocking and permeabilization using 3% Bovine Serum Albumin (BSA; Sigma) and 0.3% Triton X-100 (Sigma) in PBS. Cells were then stained with antibody specific to α-smooth muscle actin (aSMA; Abcam) (ref. 1 and 2 above) in 3% Bovine Serum Albumin (BSA; Sigma) and 0.3% Triton X-100 (Sigma) in PBS, and incubated overnight at 4° C. […] Dead or apoptotic cells were excluded from analysis based on positive SYTOX green staining. % of total cells positive for αSMA were counted in each well and normalized to the average of 11 wells treated with TGF-β1 on the same plate using Dotmatics' Studies Software. […] The EC50 values are reported.

[2] = test system: Wnt activity (Sp5-Luc reporter, SW480 colon carcinoma cells); test: Sp5-Luc Wnt reporter gene screening assay in SW480 colon carcinoma cells; conditions: Homo sapiens

Structure (SMILES) | EC50 [1] | IC50 [2]
CCC(=O)Nc1cncc(-c2cc3c(-c4nc5c(-c6cccc(F)c6)cccc5[nH]4)n[nH]c3cn2)c1 [Compound 1, N-(5-(3-(4-(3-Fluorophenyl)-1H-benzo[d]imidazol-2-yl)-1H-pyrazolo[3,4-c]pyridin-5-yl)pyridin-3-yl)propionamide] | 9 nM | 43.9 nM
CN(C)c1cncc(-c2cc3c(-c4nc5c(-c6cccc(F)c6)cccc5[nH]4)n[nH]c3cn2)c1 [Compound 7, 5-(3-(4-(3-Fluorophenyl)-1H-benzo[d]imidazol-2-yl)-1H-pyrazolo[3,4-c]pyridin-5-yl)-N,N-dimethylpyridin-3-amine] | 17 nM | 42.4 nM
O=C(Nc1cncc(-c2cc3c(-c4nc5c(-c6cccc(F)c6)cccc5[nH]4)n[nH]c3cn2)c1)C1CCC1 [Compound 20] | 10 nM | 74.4 nM
CCCC(=O)Nc1cncc(-c2cc3c(-c4nc5c(-c6ccncc6)cccc5[nH]4)n[nH]c3cn2)c1 [Compound 121, N-(5-(3-(4-(Pyridin-4-yl)-1H-benzo[d]imidazol-2-yl)-1H-pyrazolo[3,4-c]pyridin-5-yl)pyridin-3-yl)butyramide] |  | > 10000 nM
CC(C)C(=O)Nc1cncc(-c2cc3c(-c4nc5c(N6CCN(C)CC6)cccc5[nH]4)n[nH]c3cn2)c1 [Compound 217, N-(5-(3-(4-(4-Methylpiperazin-1-yl)-1H-benzo[d]imidazol-2-yl)-1H-pyrazolo[3,4-c]pyridin-5-yl)pyridin-3-yl)isobutyramide] |  | 355 nM
CN1CCN(c2cccc3[nH]c(-c4n[nH]c5cnc(-c6cncc(CN7CCCCC7)c6)cc45)nc23)CC1 [Compound 223, 3-(4-(4-Methylpiperazin-1-yl)-1H-benzo[d]imidazol-2-yl)-5-(5-(piperidin-1-ylmethyl)pyridin-3-yl)-1H-pyrazolo[3,4-c]pyridine] | 2610 nM | 
O=C(Nc1cncc(-c2cc3c(-c4nc5ccccc5[nH]4)n[nH]c3cn2)c1)C1CCCCC1 [Compound 256, N-(5-(3-(1H-Benzo[d]imidazol-2-yl)-1H-pyrazolo[3,4-c]pyridin-5-yl)pyridin-3-yl)cyclohexanecarboxamide] |  | 95.6 nM
O=C(Nc1cncc(-c2cc3c(-c4nc5c(-c6ccsc6)cccc5[nH]4)n[nH]c3cn2)c1)C1CCC1 [Compound 280, N-(5-(3-(4-(Thiophen-3-yl)-1H-benzo[d]imidazol-2-yl)-1H-pyrazolo[3,4-c]pyridin-5-yl)pyridin-3-yl)cyclobutanecarboxamide] |  | 6.2 nM
CCCCC(=O)Nc1cncc(-c2cc3c(-c4nc5c(-c6ccoc6)cccc5[nH]4)n[nH]c3cn2)c1 [Compound 304, N-(5-(3-(4-(Furan-3-yl)-1H-benzo[d]imidazol-2-yl)-1H-pyrazolo[3,4-c]pyridin-5-yl)pyridin-3-yl)pentanamide] |  | 145 nM
O=C(Nc1cncc(-c2cc3c(-c4nc5c(-c6ccoc6)cccc5[nH]4)n[nH]c3cn2)c1)C1CCC1 [Compound 306, N-(5-(3-(4-(Furan-3-yl)-1H-benzo[d]imidazol-2-yl)-1H-pyrazolo[3,4-c]pyridin-5-yl)pyridin-3-yl)cyclobutanecarboxamide] |  | 16.8 nM
CN(C)c1cncc(-c2cc3c(-c4nc5c(-c6cccs6)cccc5[nH]4)n[nH]c3cn2)c1 [Compound 319, N,N-Dimethyl-5-(3-(4-(thiophen-2-yl)-1H-benzo[d]imidazol-2-yl)-1H-pyrazolo[3,4-c]pyridin-5-yl)pyridin-3-amine] |  | 77.9 nM
CC(C)CC(=O)Nc1cncc(-c2cc3c(-c4nc5c(-c6ccc(F)s6)cccc5[nH]4)n[nH]c3cn2)c1 [Compound 340, N-(5-(3-(4-(5-Fluorothiophen-2-yl)-1H-benzo[d]imidazol-2-yl)-1H-pyrazolo[3,4-c]pyridin-5-yl)pyridin-3-yl)-3-methylbutanamide] |  | 17.3 nM
CC(=O)c1ccc(-c2cccc3[nH]c(-c4n[nH]c5cnc(-c6cncc(NC(=O)CC(C)(C)C)c6)cc45)nc23)s1 [Compound 406, N-(5-(3-(4-(5-Acetylthiophen-2-yl)-1H-benzo[d]imidazol-2-yl)-1H-pyrazolo[3,4-c]pyridin-5-yl)pyridin-3-yl)-3,3-dimethylbutanamide] |  | 247 nM
CS(=O)(=O)NCc1cc(F)cc(-c2cccc3[nH]c(-c4n[nH]c5cnc(-c6cncc(NC(=O)C7CCC7)c6)cc45)nc23)c1 [Compound 436, N-(5-(3-(4-(3-Fluoro-5-(methylsulfonamidomethyl)phenyl)-1H-benzo[d]imidazol-2-yl)-1H-pyrazolo[3,4-c]pyridin-5-yl)pyridin-3-yl) cyclobutanecarboxamide] |  | 25.8 nM
Fc1cccc(-c2cccc3[nH]c(-c4n[nH]c5cnc(C6=CCNCC6)cc45)nc23)c1 [Compound 938, 3-(4-(3-Fluorophenyl)-1H-benzo[d]imidazol-2-yl)-5-(1,2,3,6-tetrahydropyridin-4-yl)-1H-pyrazolo[3,4-c]pyridine] |  | 145 nM
Cn1cc(-c2cc3c(-c4nc5c(-c6cccc(F)c6)cccc5[nH]4)n[nH]c3cn2)cn1 [Compound 940, 3-(4-(3-Fluorophenyl)-1H-benzo[d]imidazol-2-yl)-5-(1-methyl-1H-pyrazol-4-yl)-1H-pyrazolo[3,4-c]pyridine] |  | 46 nM
Cc1ncc(-c2cc3c(-c4nc5c(-c6cccc(F)c6)cccc5[nH]4)n[nH]c3cn2)n1C [Compound 941, 5-(1,2-Dimethyl-1H-imidazol-5-yl)-3-(4-(3-fluorophenyl)-1H-benzo[d]imidazol-2-yl)-1H-pyrazolo[3,4-c]pyridine] |  | 334 nM
NC1CN(c2cncc(-c3cc4c(-c5nc6c(-c7cccc(F)c7)cccc6[nH]5)n[nH]c4cn3)n2)C1 [Compound 942, 1-(6-(3-(4-(3-Fluorophenyl)-1H-benzo[d]imidazol-2-yl)-1H-pyrazolo[3,4-c]pyridin-5-yl)pyrazin-2-yl)azetidin-3-amine] |  | 79 nM
Fc1cccc(-c2cccc3[nH]c(-c4n[nH]c5cnc(-c6cncc(OC7CCCCC7)c6)cc45)nc23)c1 [Compound 943, 5-(5-(Cyclohexyloxy)pyridin-3-yl)-3-(4-(3-fluorophenyl)-1H-benzo[d]imidazol-2-yl)-1H-pyrazolo[3,4-c]pyridine] |  | 560 nM
Fc1cccc(-c2cccc3[nH]c(-c4n[nH]c5cnc(-c6cncc(OC7CCNCC7)c6)cc45)nc23)c1 [Compound 944, 3-(4-(3-Fluorophenyl)-1H-benzo[d]imidazol-2-yl)-5-(5-(piperidin-4-yloxy)pyridin-3-yl)-1H-pyrazolo[3,4-c]pyridine] |  | 1200 nM
O=C(CC1CCNCC1)Nc1cncc(-c2cc3c(-c4nc5c(-c6cccc(F)c6)cccc5[nH]4)n[nH]c3cn2)c1 [Compound 945, N-(5-(3-(4-(3-Fluorophenyl)-1H-benzo[d]imidazol-2-yl)-1H-pyrazolo[3,4-c]pyridin-5-yl)pyridin-3-yl)-2-(piperidin-4-yl)acetamide] |  | > 10000 nM
Fc1cccc(-c2cccc3[nH]c(-c4n[nH]c5cnc(-c6cncc(OCCN7CCCC7)c6)cc45)nc23)c1 [Compound 946, 3-(4-(3-Fluorophenyl)-1H-benzo[d]imidazol-2-yl)-5-(5-(2-(pyrrolidin-1-yl)ethoxy)pyridin-3-yl)-1H-pyrazolo[3,4-c]pyridine] |  | 580 nM
Fc1cccc(-c2cccc3[nH]c(-c4n[nH]c5cnc(-c6cncc(OCc7ccccc7)c6)cc45)nc23)c1 [Compound 950, 5-(5-(Benzyloxy)pyridin-3-yl)-3-(4-(3-fluorophenyl)-1H-benzo[d]imidazol-2-yl)-1H-pyrazolo[3,4-c]pyridine] |  | 165 nM
O=C(CC1CCCCC1)Nc1cncc(-c2cc3c(-c4nc5c(-c6cccc(F)c6)cccc5[nH]4)n[nH]c3cn2)c1 [Compound 951, 2-Cyclohexyl-N-(5-(3-(4-(3-fluorophenyl)-1H-benzo[d]imidazol-2-yl)-1H-pyrazolo[3,4-c]pyridin-5-yl)pyridin-3-yl)acetamide] |  | 115 nM
CC(C)CC(=O)Nc1cncc(-c2cc3c(-c4nc5c(-c6cc(F)cc(OCCN(C)C)c6)cccc5[nH]4)n[nH]c3cn2)c1 [Compound 1262, N-(5-(3-(4-(3-(2-(Dimethylamino)ethoxy)-5-fluorophenyl)-1H-benzo[d]imidazol-2-yl)-1H-pyrazolo[3,4-c]pyridin-5-yl)pyridin-3-yl)-3-methylbutanamide] |  | 747 nM
CC(C)CC(=O)Nc1cncc(-c2cc3c(-c4nc5c(-c6cc(F)cc(OCCN7CCCC7)c6)cccc5[nH]4)n[nH]c3cn2)c1 [Compound 1306, N-(5-(3-(4-(3-Fluoro-5-(2-(pyrrolidin-1-yl)ethoxy)phenyl)-1H-benzo[d]imidazol-2-yl)-1H-pyrazolo[3,4-c]pyridin-5-yl)pyridin-3-yl)-3-methylbutanamide] |  | 1370 nM
CN(C)CC(=O)Nc1cncc(-c2cc3c(-c4nc5c(-c6cccc(F)c6)cccc5[nH]4)n[nH]c3cn2)c1 [Compound 1437, 2-(Dimethylamino)-N-(5-(3-(4-(3-fluorophenyl)-1H-benzo[d]imidazol-2-yl)-1H-pyrazolo[3,4-c]pyridin-5-yl)pyridin-3-yl)acetamide] |  | 155 nM
